This passage reports Normal melting temperature results from the NIST ThermoML archive (doi:10.1021/je1011423).

The conditions of the series: Crystal; thermal gravimetric analysis.

Numbers after ± are expanded uncertainties.

Take `O=[N+]([O-])c1cc([N+](=O)[O-])c(O)c(Cl)c1O` [2-chloro-4,6-dinitroresorcinol]: the Normal melting temperature came to 185.00 ± 0.01 °C.
